pIC50: −log10 of the molar value.

In one experiment the test system is Ras farnesylation.
Assay: not given
The settings on record: Hancock et al., Casey et al., Schafer et al.; cited from earlier work.
As for `CC[C@H](C)C(=O)O[C@H]1C[C@@H](C)C=C2C=C[C@H](C)[C@H](CC[C@@H]3C[C@@H](O)CC(=O)O3)[C@H]21` [lovastatin], the “Inhibition of Ras farnesylation in vivo” value is recorded as “Inhibition of Ras farnesylation in vivo has been demonstrated”. Turning to `CC[C@H](C)C(=O)O[C@H]1CCC=C2C=C[C@H](C)[C@H](CC[C@@H]3C[C@@H](O)CC(=O)O3)[C@H]21` [compactin], the “Inhibition of Ras farnesylation in vivo” value was “Inhibition of Ras farnesylation in vivo has been demonstrated”.

Another experiment has as its target T1, Farnesyl-protein transferase (Bos taurus, UniProt P29702+P49355).
T1 construct: Farnesyl-protein transferase from bovine brain; from tissue; host or cells: bovine brain, partially purified (DEAE-Sephacel, N-octyl agarose, mono Q HPLC)
The experiment in a line: Inhibition of Ras farnesylation in vitro by farnesyl-protein transferase (FTase). The following applies: partially purified bovine brain FTase; Ras-CVLS 3.5 μM, [3H]FPP 0.25 μM; averages of 2-5 determinations. Type of experiment: biochemical. The protocol:
The farnesyl pyrophosphate analog compounds of this invention were tested as follows for their ability to inhibit Ras farnesylation in vitro. Farnesyl-protein transferase from bovine brain was chromatographed on DEAE-Sephacel (Pharmacia, 0-0.8M NaCl gradient elution), N-octyl agarose (Sigma, 0-0.6M NaCl gradient elution), and a mono Q HPLC column (Pharmacia, 0-0.3M NaCl gradient). Ras-CVLS at 3.5 μM, 0.25 μM [^3 H]FPP, and the indicated compounds were incubated with this partially purified enzyme preparation.
The FTase data presented above are the averages of 2-5 determinations and reflect the ability of the test compounds to inhibit Ras farnesylation in vitro.
In general, pIC50 refers to the IC50 on a negative log10 scale, so that one unit is a factor of ten. Higher therefore signals a low IC50. Turning to `CC(C)=CCC/C(C)=C/CC/C(C)=C/CCC(=O)CP(=O)(O)O` [Scheme 2, [2-Oxo-6,10,14-trimethylpentadeca-5,9,13-trienyl]phosphonic acid], the pIC50 is 4.21. With “[1-Hydroxy-(E,E)-4,8,12-trimethyl-3,7,11-tridecatrienyl]phosphonic acid [Scheme 12]”, the negative logarithm of the IC50 (pIC50) is 4.38. Still for that read-out and setting: then “[2-[(E,E)-3,7,11-Trimethyl-2,6,10-dodecatrienylamino]-2-oxo-ethyl]phosphonic acid monomethyl ester, potassium salt [Scheme 8]”, with 4.00; and `CC(C)=CCC/C(C)=C/CC/C(C)=C/CCSCP(=O)(O)O` [Scheme 6, [(E,E)-4,8,12-trimethyl-3,7,11-tridecatrienyl]thiomethyl-phosphonic acid], with 4.00. In the case of `CC(C)=CCC/C(C)=C/CC/C(C)=C/CCC(O)CC(=O)O` (stereo not drawn) [Scheme 1, 3-Hydroxy-7,11,15-trimethylhexadeca-6,10,14-trienoic acid], the negative-log IC50 (pIC50) was 3.51. `CC(C)=CCC/C(C)=C/CC/C(C)=C/CNC(=O)CP(=O)(O)O` [Scheme 5, [2-[(E,E)-3,7,11-Trimethyl-2,6,10-dodecatrienylamino]-2-oxo-ethyl]phosphonic acid] showed a pIC50 of 7.36.

The molecule `CC(=O)C(C/C=C(\C)CC/C=C(\C)CCC=C(C)C)P(=O)(O)O` (stereo not drawn) [Scheme 4, [1-Acetyl-4,8,12-trimethyltrideca-3,7,11-trienyl]phosphonic acid] gave a negative-log IC50 (pIC50) of 4.68.

Consider `CC(C)=CCC/C(C)=C/CC/C(C)=C/CCC(O)CP(=O)(O)O` (stereo not drawn) [Scheme 3, [2-Hydroxy-6,10,14-trimethylpentadeca-5,9,13-trienyl]phosphonic acid], for which the pIC50 is 4.00.

The next experiment deals with HMG-CoA reductase.
Assay: not given
The following applies: cited from earlier work.
Consider `CC[C@H](C)C(=O)O[C@H]1C[C@@H](C)C=C2C=C[C@H](C)[C@H](CC[C@@H]3C[C@@H](O)CC(=O)O3)[C@H]21` [lovastatin], for which the “Inhibition of HMG-CoA reductase” value is listed as “inhibit HMG-CoA reductase”. With `CC[C@H](C)C(=O)O[C@H]1CCC=C2C=C[C@H](C)[C@H](CC[C@@H]3C[C@@H](O)CC(=O)O3)[C@H]21` [compactin], the “Inhibition of HMG-CoA reductase” value is given as “inhibit HMG-CoA reductase”.

Values taken from patent US5362906A, “Farnesyl pyrophosphate analogs” (Merck & Co., Inc., priority 1993, dated 1994).
